According to the NIST ThermoML archive (doi:10.1016/j.jct.2011.08.016):
± gives the expanded uncertainty stated by the source.

Assay: xn = mol fraction of the nth substance listed
Details: Liquid, Vibrating tube method

Structure (SMILES): CCCCCCCCCC [decane] + CCCCCCC
- mass density (363.02 K, 16000 kPa, x2 = 0.777): 658.24 ± 0.53 kg/m3
- mass density (363.02 K, 17000 kPa, x2 = 0.5219): 673.01 ± 0.53 kg/m3
- mass density (363.02 K, 17000 kPa, x2 = 0.777): 659.41 ± 0.54 kg/m3
- mass density (363.02 K, 18000 kPa, x2 = 0.5219): 674.09 ± 0.53 kg/m3
- mass density (363.02 K, 18000 kPa, x2 = 0.777): 660.5 ± 0.55 kg/m3
- mass density (363.02 K, 19000 kPa, x2 = 0.5219): 675.09 ± 0.54 kg/m3
- mass density (363.02 K, 19000 kPa, x2 = 0.777): 661.57 ± 0.56 kg/m3
- mass density (363.02 K, 20000 kPa, x2 = 0.5219): 676.07 ± 0.55 kg/m3
- mass density (363.02 K, 20000 kPa, x2 = 0.777): 662.62 ± 0.57 kg/m3
- mass density (363.02 K, 21000 kPa, x2 = 0.5219): 677.05 ± 0.56 kg/m3
- mass density (363.02 K, 21000 kPa, x2 = 0.777): 663.64 ± 0.57 kg/m3
- mass density (363.02 K, 22000 kPa, x2 = 0.5219): 677.98 ± 0.56 kg/m3
- mass density (363.02 K, 22000 kPa, x2 = 0.777): 664.64 ± 0.58 kg/m3
- mass density (363.02 K, 23000 kPa, x2 = 0.5219): 678.94 ± 0.57 kg/m3
- mass density (363.02 K, 23000 kPa, x2 = 0.777): 665.63 ± 0.59 kg/m3
- mass density (363.02 K, 24000 kPa, x2 = 0.5219): 679.87 ± 0.58 kg/m3
- mass density (363.02 K, 24000 kPa, x2 = 0.777): 666.6 ± 0.6 kg/m3
- mass density (363.02 K, 25000 kPa, x2 = 0.5219): 680.76 ± 0.59 kg/m3
- mass density (363.02 K, 25000 kPa, x2 = 0.777): 667.53 ± 0.61 kg/m3
- mass density (363.03 K, 1000 kPa, x2 = 0.0531): 674.85 ± 0.42 kg/m3
- mass density (363.03 K, 1000 kPa, x2 = 0.952): 627.08 ± 0.44 kg/m3
- mass density (363.03 K, 2000 kPa, x2 = 0.0531): 676.04 ± 0.42 kg/m3
- mass density (363.03 K, 2000 kPa, x2 = 0.952): 628.62 ± 0.44 kg/m3
- mass density (363.03 K, 3000 kPa, x2 = 0.0531): 677.23 ± 0.43 kg/m3
- mass density (363.03 K, 3000 kPa, x2 = 0.952): 630.14 ± 0.45 kg/m3
- mass density (363.03 K, 4000 kPa, x2 = 0.0531): 678.38 ± 0.43 kg/m3
- mass density (363.03 K, 4000 kPa, x2 = 0.952): 631.64 ± 0.46 kg/m3
- mass density (363.03 K, 5000 kPa, x2 = 0.0531): 679.52 ± 0.44 kg/m3
- mass density (363.03 K, 5000 kPa, x2 = 0.952): 633.12 ± 0.46 kg/m3
- mass density (363.03 K, 6000 kPa, x2 = 0.0531): 680.65 ± 0.44 kg/m3
- mass density (363.03 K, 6000 kPa, x2 = 0.952): 634.56 ± 0.47 kg/m3
- mass density (363.03 K, 7000 kPa, x2 = 0.0531): 681.75 ± 0.45 kg/m3
- mass density (363.03 K, 7000 kPa, x2 = 0.952): 635.98 ± 0.48 kg/m3
- mass density (363.03 K, 8000 kPa, x2 = 0.0531): 682.84 ± 0.45 kg/m3
- mass density (363.03 K, 8000 kPa, x2 = 0.952): 637.36 ± 0.48 kg/m3
- mass density (363.03 K, 9000 kPa, x2 = 0.0531): 683.92 ± 0.46 kg/m3
- mass density (363.03 K, 9000 kPa, x2 = 0.952): 638.71 ± 0.49 kg/m3
- mass density (363.03 K, 10000 kPa, x2 = 0.0531): 684.98 ± 0.46 kg/m3
- mass density (363.03 K, 10000 kPa, x2 = 0.952): 640.03 ± 0.5 kg/m3
- mass density (363.03 K, 11000 kPa, x2 = 0.0531): 686.02 ± 0.47 kg/m3
- mass density (363.03 K, 11000 kPa, x2 = 0.952): 641.33 ± 0.51 kg/m3
- mass density (363.03 K, 12000 kPa, x2 = 0.0531): 687.05 ± 0.47 kg/m3
- mass density (363.03 K, 12000 kPa, x2 = 0.952): 642.61 ± 0.51 kg/m3
- mass density (363.03 K, 13000 kPa, x2 = 0.0531): 688.07 ± 0.48 kg/m3
- mass density (363.03 K, 13000 kPa, x2 = 0.952): 643.86 ± 0.52 kg/m3
- mass density (363.03 K, 14000 kPa, x2 = 0.0531): 689.07 ± 0.49 kg/m3
- mass density (363.03 K, 14000 kPa, x2 = 0.952): 645.09 ± 0.53 kg/m3
- mass density (363.03 K, 15000 kPa, x2 = 0.0531): 690.05 ± 0.49 kg/m3
- mass density (363.03 K, 15000 kPa, x2 = 0.952): 646.3 ± 0.54 kg/m3
- mass density (363.03 K, 16000 kPa, x2 = 0.0531): 691.03 ± 0.5 kg/m3
- mass density (363.03 K, 16000 kPa, x2 = 0.952): 647.49 ± 0.55 kg/m3
- mass density (363.03 K, 17000 kPa, x2 = 0.0531): 691.98 ± 0.51 kg/m3
- mass density (363.03 K, 17000 kPa, x2 = 0.952): 648.66 ± 0.55 kg/m3
- mass density (363.03 K, 18000 kPa, x2 = 0.0531): 692.93 ± 0.51 kg/m3
- mass density (363.03 K, 18000 kPa, x2 = 0.952): 649.8 ± 0.56 kg/m3
- mass density (363.03 K, 19000 kPa, x2 = 0.0531): 693.87 ± 0.52 kg/m3
- mass density (363.03 K, 19000 kPa, x2 = 0.952): 650.92 ± 0.57 kg/m3
- mass density (363.03 K, 20000 kPa, x2 = 0.0531): 694.79 ± 0.53 kg/m3
- mass density (363.03 K, 20000 kPa, x2 = 0.952): 652.02 ± 0.58 kg/m3
- mass density (363.03 K, 21000 kPa, x2 = 0.0531): 695.7 ± 0.53 kg/m3
- mass density (363.03 K, 21000 kPa, x2 = 0.952): 653.1 ± 0.59 kg/m3
- mass density (363.03 K, 22000 kPa, x2 = 0.0531): 696.6 ± 0.54 kg/m3
- mass density (363.03 K, 22000 kPa, x2 = 0.952): 654.16 ± 0.6 kg/m3
- mass density (363.03 K, 23000 kPa, x2 = 0.0531): 697.47 ± 0.55 kg/m3
- mass density (363.03 K, 23000 kPa, x2 = 0.952): 655.2 ± 0.6 kg/m3
- mass density (363.03 K, 24000 kPa, x2 = 0.0531): 698.37 ± 0.55 kg/m3
- mass density (363.03 K, 24000 kPa, x2 = 0.952): 656.21 ± 0.61 kg/m3
- mass density (363.03 K, 25000 kPa, x2 = 0.0531): 699.21 ± 0.56 kg/m3
- mass density (363.03 K, 25000 kPa, x2 = 0.952): 657.21 ± 0.62 kg/m3
- mass density (363.06 K, 1000 kPa, x2 = 0.2594): 666.7 ± 0.42 kg/m3
- mass density (363.06 K, 2000 kPa, x2 = 0.2594): 667.89 ± 0.43 kg/m3
- mass density (363.06 K, 3000 kPa, x2 = 0.2594): 669.1 ± 0.43 kg/m3
- mass density (363.06 K, 4000 kPa, x2 = 0.2594): 670.27 ± 0.44 kg/m3
- mass density (363.06 K, 5000 kPa, x2 = 0.2594): 671.44 ± 0.44 kg/m3
- mass density (363.06 K, 6000 kPa, x2 = 0.2594): 672.61 ± 0.45 kg/m3
- mass density (363.06 K, 7000 kPa, x2 = 0.2594): 673.77 ± 0.45 kg/m3
- mass density (363.06 K, 8000 kPa, x2 = 0.2594): 674.91 ± 0.46 kg/m3
- mass density (363.06 K, 9000 kPa, x2 = 0.2594): 676.05 ± 0.46 kg/m3
- mass density (363.06 K, 10000 kPa, x2 = 0.2594): 677.17 ± 0.47 kg/m3
- mass density (363.06 K, 11000 kPa, x2 = 0.2594): 678.26 ± 0.48 kg/m3
- mass density (363.06 K, 12000 kPa, x2 = 0.2594): 679.34 ± 0.48 kg/m3
- mass density (363.06 K, 13000 kPa, x2 = 0.2594): 680.41 ± 0.49 kg/m3
- mass density (363.06 K, 14000 kPa, x2 = 0.2594): 681.46 ± 0.49 kg/m3
- mass density (363.06 K, 15000 kPa, x2 = 0.2594): 682.5 ± 0.5 kg/m3
- mass density (363.06 K, 16000 kPa, x2 = 0.2594): 683.52 ± 0.51 kg/m3
- mass density (363.06 K, 17000 kPa, x2 = 0.2594): 684.53 ± 0.51 kg/m3
- mass density (363.06 K, 18000 kPa, x2 = 0.2594): 685.52 ± 0.52 kg/m3
- mass density (363.06 K, 19000 kPa, x2 = 0.2594): 686.5 ± 0.53 kg/m3
- mass density (363.06 K, 20000 kPa, x2 = 0.2594): 687.43 ± 0.54 kg/m3
- mass density (363.06 K, 21000 kPa, x2 = 0.2594): 688.35 ± 0.54 kg/m3
- mass density (363.06 K, 22000 kPa, x2 = 0.2594): 689.23 ± 0.55 kg/m3
- mass density (363.06 K, 23000 kPa, x2 = 0.2594): 690.14 ± 0.56 kg/m3
- mass density (363.06 K, 24000 kPa, x2 = 0.2594): 691.03 ± 0.56 kg/m3
- mass density (363.06 K, 25000 kPa, x2 = 0.2594): 691.89 ± 0.57 kg/m3
